In PMC6326523, “A high-throughput screen to identify novel small molecule inhibitors of the Werner Syndrome Helicase-Nuclease (WRN)” (PLoS ONE, 2019):

Legend:
[1] = biological target: T1, full-length BLM helicase (Homo sapiens, UniProt P54132); assay: Radiometric helicase assay, full-length BLM; assay type: biochemical; details: for IC50: full-length BLM 0.1 nM, FORKR 0.5 nM
T1 construct: Full length recombinant WRN [18], BLM [19], and FANCJ [20] proteins were purified from insect cells; made in house; host or cells: insect cells
T1 sequence (P54132 whole entry): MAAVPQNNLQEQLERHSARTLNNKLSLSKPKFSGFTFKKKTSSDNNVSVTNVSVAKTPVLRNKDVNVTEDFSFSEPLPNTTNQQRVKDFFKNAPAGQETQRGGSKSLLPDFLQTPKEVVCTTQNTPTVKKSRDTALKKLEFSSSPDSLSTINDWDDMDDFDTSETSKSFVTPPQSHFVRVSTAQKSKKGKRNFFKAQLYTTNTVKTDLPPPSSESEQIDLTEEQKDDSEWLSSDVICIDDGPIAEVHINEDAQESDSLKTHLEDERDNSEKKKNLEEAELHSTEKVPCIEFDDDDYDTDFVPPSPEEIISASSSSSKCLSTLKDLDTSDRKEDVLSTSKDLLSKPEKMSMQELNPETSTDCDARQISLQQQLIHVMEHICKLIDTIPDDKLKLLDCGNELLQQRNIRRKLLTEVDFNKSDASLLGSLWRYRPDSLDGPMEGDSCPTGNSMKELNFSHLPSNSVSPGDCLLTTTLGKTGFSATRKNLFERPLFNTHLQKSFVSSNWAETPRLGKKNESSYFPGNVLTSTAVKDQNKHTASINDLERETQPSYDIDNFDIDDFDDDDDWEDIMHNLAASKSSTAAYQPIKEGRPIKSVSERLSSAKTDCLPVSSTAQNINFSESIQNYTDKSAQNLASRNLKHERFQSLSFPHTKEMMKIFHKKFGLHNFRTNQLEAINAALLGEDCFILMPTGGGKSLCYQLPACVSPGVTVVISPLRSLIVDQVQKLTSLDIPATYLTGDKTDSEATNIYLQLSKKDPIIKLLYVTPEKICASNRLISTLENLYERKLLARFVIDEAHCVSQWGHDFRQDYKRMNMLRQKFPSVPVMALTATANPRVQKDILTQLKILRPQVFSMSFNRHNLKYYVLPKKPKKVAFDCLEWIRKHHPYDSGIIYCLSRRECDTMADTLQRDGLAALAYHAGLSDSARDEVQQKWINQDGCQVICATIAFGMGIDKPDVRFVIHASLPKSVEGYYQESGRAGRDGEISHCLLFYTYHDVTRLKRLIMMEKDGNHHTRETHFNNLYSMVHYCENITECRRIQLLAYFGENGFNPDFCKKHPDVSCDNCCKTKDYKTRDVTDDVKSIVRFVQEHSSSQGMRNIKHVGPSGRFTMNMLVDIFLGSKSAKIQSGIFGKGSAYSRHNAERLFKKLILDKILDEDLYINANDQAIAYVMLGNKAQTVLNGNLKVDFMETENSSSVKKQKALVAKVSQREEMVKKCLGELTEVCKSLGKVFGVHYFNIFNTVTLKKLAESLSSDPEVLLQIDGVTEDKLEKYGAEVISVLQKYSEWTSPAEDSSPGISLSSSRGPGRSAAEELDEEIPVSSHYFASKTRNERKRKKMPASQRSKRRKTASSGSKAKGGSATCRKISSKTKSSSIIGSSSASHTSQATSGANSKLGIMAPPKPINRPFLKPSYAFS
Experimental: (§1) Fifteen μL of reaction buffer was added to a microcentrifuge tube followed by the addition of 1 μL of selected compounds (0.5–100 μM final concentration) or DMSO. One μL of WRN (full length), RECQ1, FANCJ, BLM or control was added to each reaction and incubated at room temperature for 15 min. Three μL of substrate (0.5 nM FORKR and 2 mM ATP final concentrations) were added to all reactions which were incubated at 37°C for 15 min. Reactions were stopped with the addition of 20 μL of 2X STOP dye containing EDTA, glycerol, bromphenol blue and xylene cyanol. Samples were electrophoresed for 1.5 hr at 200 V on a 12% non-denaturing PAGE gel in 1X TBE Buffer.
(§2) Three compounds identified from the cherry-picked set were tested for their effects on WRN exonuclease activity (20 nM) on the FORKR DNA substrate (1 nM) as well as DNA unwinding by full-length BLM (0.1 nM) and FANCJ (5 nM) helicases, which belong to the same Superfamily 2 as WRN [25], to assess their specificity for inhibition of WRN-catalyzed unwinding of the FORKR DNA substrate (0.5 nM). […] Nonetheless, these two compounds were also further tested in cell-based assays to assess their effects on proliferation.
(§3) Supplementary file pone.0210525.s005.TIF: S5 Fig Specificity of select WRN inhibitors for inhibition of other human helicases. (A) Quantitation of full-length BLM helicase (0.1 nM) activity on the FORKR DNA substrate (0.5 nM) with increasing concentration of each compound (0–100 μM). (B) Quantitation of full-length FANCJ (5 nM) helicase activity on the FORKR DNA substrate (0.5 nM) with increasing concentration of each compound (0–100 μM). (TIF) Click here for additional data file.

[2] = biological target: T2, full-length FANCJ helicase (Homo sapiens, UniProt Q9BX63); assay: Radiometric helicase assay, full-length FANCJ; assay type: biochemical; details: for IC50: full-length FANCJ 5 nM, FORKR 0.5 nM
T2 construct: Full length recombinant WRN [18], BLM [19], and FANCJ [20] proteins were purified from insect cells; made in house; host or cells: insect cells
T2 sequence (Q9BX63 1-1249): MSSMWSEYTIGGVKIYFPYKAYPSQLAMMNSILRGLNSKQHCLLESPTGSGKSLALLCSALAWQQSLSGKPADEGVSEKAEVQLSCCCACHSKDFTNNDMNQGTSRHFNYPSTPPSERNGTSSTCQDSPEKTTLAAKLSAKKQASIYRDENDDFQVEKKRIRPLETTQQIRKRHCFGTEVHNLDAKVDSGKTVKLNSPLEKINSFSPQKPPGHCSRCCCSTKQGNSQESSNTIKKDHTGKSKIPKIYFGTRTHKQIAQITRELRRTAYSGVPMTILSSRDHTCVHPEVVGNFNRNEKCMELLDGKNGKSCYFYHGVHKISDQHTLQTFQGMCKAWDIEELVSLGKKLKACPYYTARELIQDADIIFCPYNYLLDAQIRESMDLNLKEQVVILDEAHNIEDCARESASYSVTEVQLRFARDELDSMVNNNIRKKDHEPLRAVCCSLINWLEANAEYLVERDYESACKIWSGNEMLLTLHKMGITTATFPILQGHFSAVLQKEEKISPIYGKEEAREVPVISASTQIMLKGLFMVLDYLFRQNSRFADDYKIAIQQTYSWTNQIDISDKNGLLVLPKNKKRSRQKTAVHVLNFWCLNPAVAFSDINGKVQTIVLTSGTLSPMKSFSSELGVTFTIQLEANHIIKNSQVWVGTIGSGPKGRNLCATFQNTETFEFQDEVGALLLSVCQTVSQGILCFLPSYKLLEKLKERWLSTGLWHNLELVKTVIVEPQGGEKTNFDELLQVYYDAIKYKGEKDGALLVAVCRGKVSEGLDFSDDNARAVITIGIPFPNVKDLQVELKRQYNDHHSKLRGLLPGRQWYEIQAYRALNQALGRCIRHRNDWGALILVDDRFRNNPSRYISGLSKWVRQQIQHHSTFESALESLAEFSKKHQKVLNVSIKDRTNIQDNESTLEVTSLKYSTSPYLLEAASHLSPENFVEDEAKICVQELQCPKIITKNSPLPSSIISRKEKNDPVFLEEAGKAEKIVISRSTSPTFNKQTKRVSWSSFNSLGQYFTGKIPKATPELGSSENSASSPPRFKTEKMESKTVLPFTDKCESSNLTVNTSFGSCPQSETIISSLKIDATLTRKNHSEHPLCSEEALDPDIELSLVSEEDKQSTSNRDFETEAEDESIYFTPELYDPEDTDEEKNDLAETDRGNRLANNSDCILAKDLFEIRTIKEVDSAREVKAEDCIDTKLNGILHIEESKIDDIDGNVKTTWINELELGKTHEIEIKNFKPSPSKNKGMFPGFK
Experimental: as §1, §2, §3

SMILES	IC50 for WRN helicase inhibition fold less than that observed for BLM ([1]; WRN vs BLM)	IC50 [1]	IC50 for WRN helicase inhibition fold less than that observed for FANCJ ([2]; WRN vs FANCJ)	IC50 [2]
Cc1ccc(-c2csc(NS(=O)(=O)c3cccc(F)c3)n2)o1 [MLS002251300-02]	2.5 fold	13 ± 2.6 µM	6 fold	28.5 ± 2 µM
COc1ccc2nc(O)c(-c3noc(-c4ccc(F)cc4)n3)cc2c1 [NCGC00029283-02]	–	12.5 ± 1.8 µM	–	3.4 ± 0.5 µM
COc1ccc2nc(O)c(-c3noc(-c4ccccc4)n3)cc2c1 [NCGC00063279-02]	–	46.1 µM	–	13.9 ± 2.6 µM
